Assay results: publication PMC5245739, “Nanoscale Electric Characteristics and Oriented Assembly of Halobacterium salinarum Membrane Revealed by Electric Force Microscopy” (Nanomaterials, 2016)
No end group written: not given here.

Columns and labels:
[1] = biological target: T1, purple membrane (PM) (Halobacterium salinarum, UniProt P02945); assay: Directional PM assembly on Peptide-3 modified silicon, AFM and surface potential; details: side attributed from surface potential; PM adsorbed on peptide modified silicon (EDC/NHS)
T1 construct: endogenous in cells; host or cells: Halobacterium halobium culture; purple membrane isolated by the standard procedure (Oesterhelt & Stoeckenius)
T1 sequence (P02945 14-261 limits assumed): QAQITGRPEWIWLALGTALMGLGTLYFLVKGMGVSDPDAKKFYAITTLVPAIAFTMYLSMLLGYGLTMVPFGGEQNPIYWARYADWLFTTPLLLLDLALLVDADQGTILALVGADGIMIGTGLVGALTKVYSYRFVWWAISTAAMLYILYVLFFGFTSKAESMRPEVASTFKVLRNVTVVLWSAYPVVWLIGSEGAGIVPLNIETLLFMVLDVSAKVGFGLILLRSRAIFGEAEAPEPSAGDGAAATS
Protocol: The peptide was modified on silicon substrates via 1-ethyl-3-(3-(dimethylamino)propyl) carbodiimide (EDC)/N-hydroxysuccinimide(NHS) coupling for an oriented PM assembly. The silicon surface is treated with oxygen plasma first for hydroxyl group generation and then followed by (3-aminopropyl)triethoxysilane (APTES) modification for an amino-terminated surface. Then, introduction of succine anhydride leads to a carboxyl-terminated self-assembled monolayer (SAM) on the silicon surface, followed by EDC/NHS activation to immobilized peptides onto the silicon surface. […] This observation is consistent with the SPR measurements on the binding affinity of peptide with PM. The surface potential analyses of PM patches on silicon substrate are labeled by lines in EFM-potential images and their sectional analyses were done. […]
The topographic and surface potential images were obtained using a Bruker Dimension Icon microscope in a two-pass operation mode slightly different from the EFM measurement mentioned above. […] The deflection amplitude of the probe in lift mode was monitored, which was linearly proportional to the electrical force imposed on the probe. […]

[2] = biological target: T1, purple membrane (PM); assay: SPR binding of peptide to PM (KxV5-type SPR, Langmuir adsorption model); details: PM patches as mobile phase
Protocol: Binding affinity of peptide with PM was tested by using surface plasmon resonance (SPR), which can provide real-time monitoring of biomolecular interactions [46, 47]. The binding constant between PM and the peptide was calculated based on Langmuir adsorption, in which the following equation is applicable. (4) 1/R=1/(RmaxKACA)+1/Rmax Rmax is the maximum coverage, KA is the equilibrium adsorption constant, and CA is the concentration of adsorbate solution [48].
The culture of Halobacterium halobium and PM isolation were carried out following a standard procedure [49]. Purified PM was suspended in double-distilled water and stored at 4 °C. The buffer used in the experiments consisted of 10 mM Tris HCl with a pH value of 8.0.
The characterization of the peptides-PM binding interaction was accomplished with the surface plasmon resonance technique (KxV5-type SPR, Plexera, Woodinville, WA, USA). […] The peptides were introduced to the surface of the gold chip in advance as stationary phase. SPR chip was modified by thiol molecules containing carboxyl to form self-assembled layer. 5 mL of carboxyl thiols (dithiosole-COOH, 1 μM) and hydroxy-dithiol molecule (dithiosole-OH, 10 μM) mixing ethanol solution was dropped on a SPR chip surface, and then the remaining liquid was removed by suction after 15 min of adsorption. After rinsing with ethanol, the carboxyl-terminated SAM on the chip surface underwent EDC/NHS activation. PM patches were introduced as a mobile phase. Based on the Langmuir adsorption model, the kinetic parameters and the binding constant were calculated using Plexera software.

GARGIMIGTGLVGALTDVYSYDF
orientation of PM on peptide-modified silicon [1]: identical orientation of the PM on surface | kon ([2]; peptide immobilised on gold chip (carboxyl-terminated SAM, EDC/NHS), Plexera software, buffer used in the experiments 10 mM Tris HCl pH 8.0, read-out: adsorption rate constant ka): 283 M⁻¹ s⁻¹ | koff ([2]; peptide immobilised on gold chip (carboxyl-terminated SAM, EDC/NHS), Plexera software, buffer used in the experiments 10 mM Tris HCl pH 8.0, read-out: dissociation rate constant kd): 0.00238 s⁻¹ | Kd ([2]; peptide immobilised on gold chip, buffer used in the experiments 10 mM Tris HCl pH 8.0, unit inferred, read-out: equilibrium dissociation constant KD): 8.43 µM
